The text below walks through data of patent US12156879B2, “Combining BACE1 inhibitors with mGluR agonists for Alzheimer's disease therapy” (University of Connecticut, priority 2019, dated 2024).

Series [1] deals with Schaffer collateral (SC)-CA1 synapses. Briefly: LTP recordings on horizontal hippocampal slices (fEPSP amplitude after high-frequency stimulation). Format: in vivo, mice. The protocol:
(§1) C57BL/6 mice of either sex (4-6 months of age; n=6 per group) received vehicle or BACE1 inhibitors, Lanabecestat (AZD3293) solution at 0.25 mg/kg or 0.5 mg/kg) via oral gavage (Eketjall et al., 2016b). For Verubescstat, 3mg/kg dose was used and delivered orally via gavage (Kennedy et al., 2016). Treatment usually last 2-4 months. The mGluR1 positive allosteric modulator Ro0711401 at 10 mg/kg was given as intraperitoneal injections (IP) 1 hour before decapitation for LTP experiments (Notartomaso et al., 2013). For behavioral assays, Ro0711401 was deliver via IP injection at 12-hour intervals for 6-8 weeks. The mGluR1/5 positive allosteric modulator CHPG was mixed in aCSF and used during recording LTP. The drug was applied in a bath during baseline recording for at least for 30 minutes before HFS stimulation was applied and LTP was recorded (Le Duigou and Kullmann, 2011).
Acute brain slices were prepared as previously described (Hu et al., 2018). Briefly, the mice were decapitated and the brains were immersed in low-calcium artificial cerebrospinal fluid (aCSF) containing (in mM): 125 NaCl, 2.5 KCl, 10 glucose, 25 NaHCO3, 1.25 NaH2PO4, 0.4 L-ascorbic acid, 3 myo-inositol, 2 Na-pyruvate, 3 MgCl2 and 0.1 CaCl2 continuously bubbled with 95% O2 and 5% CO2 (pH≈7.3). Animals were decapitated with a guillotine and the brain was quickly removed to an ice-cold aCSF chamber with constant bubbling of 95% O2 and 5% CO2. Acute horizontal brain slices containing the hippocampus were obtained using a Campden 7000 smz-2 vibratome from 4-7-month-old mice at 350 μm thick. Slices were immediately transferred to an incubation beaker containing normal aCSF (same as the low-calcium aCSF except that 1 mM MgCl2 and 1, 1.2, or 2 mM CaCl2 were used) at 30° C., continuously bubbled with 95% O2 and 5% CO2. Slices were allowed to recover for 1 hour and then were transferred to an MED-64 recording chamber with the same aCSF solution at ≈30° C., maintained by MED ThermoConnector (Automate Scientific) with continuous aCSF perfusion at 2 ml/min.
LTP recordings on hippocampal slices were performed according to previously-described procedures (Shimono et al., 2002; Baba et al., 2003; Itoh et al., 2005). Upon obtaining horizontal hippocampal slices from the brains of mice, the prepared slices were then placed onto the center of an MED probe (MED-P515A; AutoMate™ Scientific) with continuous perfusion of aCSF and bubbling of 95% O2 and 5% CO2. The device has an array arranged in an 8×8 pattern of 64 planar microelectrodes across a hippocampal slice. Each electrode is 20×20 μm with an interelectrode distance of 150 μm. A MED-A64HE1S head amplifier and a MED-A64MD1 main amplifier, run by Mobius software, were used for data acquisition and analysis. SCs to CA1 synapses were typically analyzed for LTP assays. fEPSPs caused by stimulation were recorded at a 20-kHz sampling rate within the CA1 subregion of the hippocampus. Control fEPSPs were recorded for at least 10 min before the conditioning stimulation, using a response ˜50% of the maximum. After a stable baseline was established, LTP was induced with three trains of 100 Hz for 1 s with an intertrain interval F of 20 s. Field potential amplitudes were then measured. Data are expressed as mean±SEM. Synaptic strength was evaluated by measuring changes in the fEPSP amplitude relative to baseline. Statistics were calculated by Student's t tests.

The subject of series [2] is mice (WT BACE1+/+ or BACE1-null). Briefly: Y maze spontaneous alternation task. Format: in vivo. An excerpt: (§2) Treatment usually last 2-4 months. […] For behavioral assays, Ro0711401 was deliver via IP injection at 12-hour intervals for 6-8 weeks. The mGluR1/5 positive allosteric modulator CHPG was mixed in aCSF and used during recording LTP.
The symmetrical Y maze made of acrylic consists of three arms separated by 120 degrees. Each arm is 40 cm long, 17 cm high, 4 cm wide at the bottom and 13 cm wide at the top. Each mouse was placed in the center of the Y maze and was allowed to explore freely through the maze during a 5 min session. The sequence and total number of arms entered was recorded. Arm entry was considered to be completed when the hind paws of the mouse had been completely placed in the arm. Percentage of alternations is the number of triads containing entries into all three arms divided by the maximum possible alternations (the total number of arms entered minus 2)×100. Statistics were calculated by Student's t tests.

Series [3] shares this test system. Nature of the series: Open field test. The class given is in vivo. Here is the method:
as §2
Each subject was released in the middle of the arena and observed for 10 minutes. Performance in the open field was recorded by a computer-based video tracking system (Any maze™ software, San Diego instruments, USA). Activity measures included distance traveled, percentage of time spent in corners vs. the center of the arena, and speed of movement during active exploration. The number of entries to the central zone of the open field was also recorded. Statistics were calculated by Student's t tests.

The test system is the same in series [4]. Nature of the series: Morris water maze. Format: in vivo. The protocol:
as §2
The Morris water maze test was used to assess cognitive impairment. The apparatus consisted of a white circular tank (120 cm in diameter and 40 cm deep) filled with warm water (22° C.). The water was made to appear opaque using white nontoxic paint. A transparent platform (8 cm in diameter) was located in the middle of the southwest quadrant. Mice were subjected to four consecutive trials each day over a 3-day training period (with a flag attached to the platform) and then again for 5 days (no flag attached to platform) and the platform was submerged 0.5 cm below the water surface. Each mouse was released from four different positions around the perimeter of the tank (north, northwest, east, and southeast). In each trial, every mouse was allowed to swim until it found the platform (for a maximum of 60 s) and was subsequently left on the platform for 20 s between trials. If the platform was not found in 60 s, the mouse was guided to the platform and remained there for 20 s. The escape latency to find the hidden platform was automatically recorded using a video tracking system (Any-maze, San Diego instruments). At the end of the training on the eighth day, a probe test was conducted for […] on the 9th day. The platform was removed; each was released from the northeast quadrant and was allowed to swim for 60 s. Memory retention was measured by quantifying the time spent in the target quadrant, the number of entries made into the southwest quadrant, and the number of crossings over the previous platform location. Statistics were calculated by Student's t tests. Values are expressed as mean±SEM.

For series [5] the following is noted: cited from earlier work.
Series [6] relates to synaptic proteins PSD95, mGluR2, Synaptophysin in synaptosome fraction. Nature of the series: Western analysis of synaptic proteins in synaptosomes from treated animals. The class given is in vivo, mice. The conditions noted are these: chronic treatment, Lanabecestat 0.5 mg/kg or Verubecestat 3 mg/kg. Here is the method: as §1
Synaptosome isolation was performed using Thermo Scientific Syn-PER Synaptic Protein Extraction Reagent (cat #87793) from whole brain samples. Briefly, mice were sacrificed by live decapitation, and rapidly dissected hippocampi were homogenized in Syn-Per reagent, ˜1 ml/100 mg tissue. Samples were then centrifuged at 1200×g for 10 min. The resulting supernatant was then centrifuged at 15,000×g for 20 min. Pellets (synaptosomes) were resuspended in buffer B ([…] in 6 mm Tris, pH 8.0) with 1% SDS, briefly sonicated, and frozen in −80° C. Total protein extraction was performed according to previously-described procedures (Hu et al., 2007). Brain samples were homogenized in radioimmunoprecipitation assay (RIPA) buffer (50 mM Tris-HCl, pH 7.4, 1% NP-40, 0.25% sodium deoxycholate, 150 mM NaCl, 1 mM EDTA, 1 mM NaF, 1 mM Na3VO4, and a protease inhibitor cocktail [Roche]) and centrifuged at 13,200 rpm for 90 min. Equal amounts of protein were resolved on a NuPAGE Bis-Tris gel (Invitrogen) and transferred onto nitrocellulose membranes (Invitrogen). Subsequently, blots were incubated with primary antibodies 1:1,000 mGluR1 [AB_12551; Cell Signaling]; 1:1,000 PSD-95 [AB_36233; Cell Signaling]; 1:5,000 GluR1 [AB_05-855; Upstate]; 1:1,000 GluR2/3 [AB_07-598; Upstate]; 1:1,000 GluR4 [AB_06-308; Upstate]; 1:1,000 Homer [AB_8231; Cell Signaling]; 1:500 TMEM25 [AB_24361-1-AP; ProteinTech Group]; 1:1,000 Bassoon [AB_141021; Synaptic Systems]; 1:10,000 Actin [AB_A5441; Sigma], overnight at 4° C. After extensive washing, blots were reacted with HRP-conjugated secondary antibodies and visualized using enhanced chemiluminescence (Thermo Scientific).

Where [7] appears, read: BACE1-null mice, 10 mg/kg i.p. every 12 hours, vs mock treatment.

For `O=C(Nc1nc(C(F)(F)F)co1)C1c2ccccc2Oc2ccccc21` [Ro0711401, N-[4-(trifluoromethyl)-1,3-oxazol-2-yl]-9H-xanthene-9-carboxamide], the “LTP from acutely-sectioned brain slices vs vehicle” value in series [1] (4-6 month old BACE1-null mice, 10 mg/kg i.p. one hour before sacrifice) is recorded as “significantly enhanced”. Also, the “LTP after chronic treatment” value in series [1] (BACE1-null mice, Ro0711401 10 mg/kg i.p. every 12 hours for about two months, after the behavioral tests) is “significantly elevated to the level close to that of WT mice”. Also, the “total numbers of arm entries (entrance performance)” value in series [2] (BACE1-null mice, 10 mg/kg i.p. every 12 hours, about 45 days) was “improved entrance performance”. In addition, the “changes in percentage of spontaneous alternation among groups” value in series [2] (WT, BACE1-null and BACE1-null with Ro0711401) is given as “not obvious”. The “time spent in the center of the open field” value in series [3] (BACE1-null mice after the treatment) is reported as “more time spent in the center”. In addition, in series [3] (setting [7]), the “average speed in the open field arena” value is reported as “lowered” and the “total distance covered in the open field arena” value was “lowered”. For the same compound, the “number of entries made to the platform quadrant” value in series [4] (9th day probe, BACE1-null treated, WT 6.364±0.5094, BACE1-null 3.700±0.5385) is given as 4.900±0.6403. In addition, the “time to reach the platform, habituation day 3” value in series [4] (BACE1-null+Ro0711401 mice, BACE1-null 31.56±3.432 s, WT 8.098±1.318 s) was 18.20 ± 3.203 s. For the same compound, in series [4] (BACE1-null+Ro0711401 mice, BACE1-null 41.32±3.131 s, WT 21.99±2.986 s), the “time to reach the platform, habituation day 1” value came to 24.88 ± 2.935 s. In series [4] (habituation and training phases, BACE1-null 3.872±0.7645, WT 1.205±0.2805), the “average distance covered to reach the platform over the trials” value is 1.909±0.3878 meters. Besides, in series [4] (training phase, 5 days, submerged platform, all trial days), the “average duration to reach the platform of untreated BACE1-null mice relative to BACE1-null mice treated with Ro0711401” value is “significantly higher”. In addition, the brain penetrability entry in series [5] is listed as “brain-penetrable”.

For the compound `CN1C(N)=N[C@](C)(c2cc(NC(=O)c3ccc(F)cn3)ccc2F)CS1(=O)=O` [Verubecestat], the “LTP at SC-CA1 synapses” value in series [1] (WT mice, daily oral Verubecestat 3 mg/kg or Lanabecestat 0.5 mg/kg for 2-4 months) was “significantly reduced”. Besides, the “potentiation at 30 minutes post-stimulation” value in series [1] (slices from 4-6-month-old WT mice, Lanabecestat 0.5 mg/kg or Verubecestat 3 mg/kg, control slices 245.9±0.9864%) was found to be 113.1±1.353%. In addition, in series [6], the “PSD95 level in synaptosome fraction” value is listed as “significant decrease”, the “Synaptophysin level in synaptosome fraction” value is on record as “significant decrease” and the “mGluR2 level in synaptosome fraction” value is listed as “significant decrease”. The brain penetrability entry in series [5] is “brain-penetrable”.

`NC(C(=O)O)c1cc(O)ccc1Cl` (racemic) [CHPG, (RS)-2-Chloro-5-hydroxyphenylglycine]: in series [1] (BACE1-null slices pre-treated with 125 nM for 30 min), the “LTP response vs mock treated slices” value is recorded as “significantly improved”. For the same compound, the “LTP response vs mock treatment” value in series [1] (CHPG bath on slices from WT mice treated with Lanabecestat 0.5 mg/kg for 60 days) was “slightly improved”; in series [1] (CHPG bath on slices from WT mice treated with Verubecestat 3 mg/kg for 60 days), “markedly improved”. Moreover, the brain penetrability entry in series [5] is recorded as “non-brain penetrable”.
